In test [1] the test system is transition of primary CPPs into secondary CPPs. The experiment in a line: Nephelometer assay in the presence of serum. Format: biochemical, human. The conditions noted are these: for transition rate of primary CPPs into secondary CPPs (T50): in the presence of the substance, cf. FIG. 2A. How it is done: Stock Solutions: 1. NaCl-solution: NaCl 140 mM, 2. Calcium solution: CaCl2 40 mM+Hepes 100 mM+NaCI 140 mM, pH adjusted with NaOH 10 mM to 7.40 at 37° C., 3. […] Na2HP04 19.44 mM+NaH2PO4 4.56 mM+Hepes 100 mM+NaCI 140 mM, pH adjusted with NaOH 10 mM to 7.40 at 37° C. […] These pipetting steps were performed in the following order: 1. NaCl-solution: 20 μl/well, 2. serum 80 μl/well, 3. shaking for 1 minute, 4. phosphate solution 50 μl/well, 5. shaking for 1 minute, 6. calcium solution 50 μl/well, shaking for 1 minute. Air bubbles in the wells were disintegrated with a pocket lighter and the 96-well covered with a […] adhesive sealing film for microplates. […] Assay conditions and Nephelostar® settings: measurement in a thermo constant room at 34.5° C. with the internal radiation of the device turned off. This led to an infernal measurement temperature of 36.5° C. to 37° C. The Nephelostar® was operated and controlled via the Nephelostar provider's Galaxy Software on a Windows Computer platform. The assay was performed with 200 cycles of 1.5 seconds measurement time per well and a position delay of 0.1 seconds in horizontal plate reading mode, adding up to a cycle time of 180 seconds/cycle for our Standard assay. This adds up to a total assay run time of 10 hours per assay. […] After completion of the run, data were transferred to Excel® and transposed from lines into columns. Data columns were copied into the GraphPad Prism® program to generate an XY-graph. Data were then processed by calculating nonlinear regression in the “log(agonist) vs. response-variable slope (four Parameters)” mode using the “robust fit” fitting method. The resulting values obtained for T50 and RNUT50 were further processed as required. We chose physiological conditions for temperature (37° C.) and pH (7.40 at 37° C.), and designed the assay for a final volume of 200 μl per well. These 200 μl consisted of 20 μl NaCl 140 mM, 80 μl serum, 50 μl phosphate 24 mM and 50 μl calcium 40 mM solution which were mixed in this order. […]

Test [2] has the same test system. Description: Nephelometry in the absence of serum. Format: biochemical. The conditions noted are these: FIG. 6A.

With `[Mg+2]` [magnesium], the “transition rate of primary CPPs into secondary CPPs (T50)” value in test [1] was “delayed”.

Regarding `O=S([O-])([O-])=S.[Na+].[Na+]` [sodium thiosulfate], the “impact on the assay” value in test [1] (spiked to serum in amounts of up to 40 mM) is reported as “did not have any impact”.

Take phosphate: the “transition rate of primary CPPs into secondary CPPs (T50)” value in test [1] is on record as “accelerated”.

B1: fetuin A: the strongest intrinsic serum calcification inhibitor (protein, UniProt P02765 19-300; P02765 341-367, looked up)
Alpha-2-HS-glycoprotein chain … 1: APHGPGLIYRQPNCDDPETEEAALVAIDYINQNLPWGYKHTLNQIDEVKVWPQQPSGELFEIEIDTLETTCHVLDPTPVARCSVRQLKEHAVEGDCDFQLLKLDGKFSVVYAKCDSSPDSAEDVRKVCQDCPLLAPLNDTRVVHAAKAALAAFNAQNNGSNFQLEEISRAQLVPLPPSTYVEFTVSGTDCVAKEATEAAKCNLLAEKQYGFCKATLSEKLGGAEVAVTCMVFQTQPVSSQPQPEGANEAVPTPVVDPDAPPSPPLGAPGLPPAGSPPDSHVL
Alpha-2-HS-glycoprotein chain … 2: TVVQPSVGAAAGPVVPPCPGRIRHFKV
For B1, the “influence on the assay (spiked serum components)” value in test [2] is listed as “significantly influences the assay”.
